Assay results from patent US10328093B2, “Anthracycline formulations” (CYTRX CORPORATION, priority 2012, dated 2019).

Experiments:
[1] = tested on: rats; conditions: acute and repeat-dose; cited from earlier work
[2] = IV Admixture stability in LR at approximately 2.4 mg/mL after reconstitution; assay type: physicochemical; conditions: for pH drop: from zero to two hours
Experimental: To analyze DOXO-EMCH's behavior in solution, a reversed-phase (RP) HPLC method for quantitation of DOXO-EMCH and various impurities and degradation products was utilized. Samples (1.0 μL injection volume) were assayed on an HPLC system fitted with a Phenomenex Gemini C18 column 100×2.0 mm, 3 μm at a flow rate of 0.3 mL/min. The mobile phase used was an acetate/acetonitrile gradient. The degradation product EMCH could not be detected using the above HPLC method, and was therefore determined using a liquid chromatography-mass spectrometry (LC-MS) method.
IV Admixture stability studies were designed to use the reconstitution diluent found suitable in part 1 following the procedure outlined below. Briefly, to prepare an IV Admixture solution containing approximately 2.4 mg/mL DOXO-EMCH, the required volume for reconstitution was withdrawn from the IV infusion solution bag intended for final administration. The required volume for reconstitution of the respective diluent was measured and transferred into a vial of lyophilized DOXO-EMCH. The vial of DOXO-EMCH and diluent was gently swirled to dissolve the vial contents and obtain a homogeneous mixture. The reconstituted solution of drug product was inspected to ensure that the drug was completely dissolved and that no foreign matter was present. This procedure was repeated for the total number of vials required to prepare the calculated dose of DOXO-EMCH in IV infusion solution. The required volume of reconstituted DOXO-EMCH solution was then withdrawn from the drug product vials using a suitably sized syringe, and injected into the IV infution solution bag. The contents of the IV infusion solution bag were thoroughly mixed to obtain a homogeneous mixture. The IV infusion bag was then stored at room temperature and protected from light.
The IV Admixture study was performed by first removing 3 vials of 200 mg lyophilized DOXO-EMCH drug product from storage at −20° C. and allowing the vials to come to room temperature. […] Each of the vials was reconstituted as described above. The required volume of the reconstitution diluent (20 mL) was drawn into an appropriate plastic syringe using a needle and injected through the stopper of each vial. The reconstituted vial was then swirled and visually inspected for complete reconstitution to form a clear, homogeneous solution. The time required to form a clear, homogeneous solution was recorded. The required volume (20.0 mL of a 10 mg/mL constituted solution) was transferred from each reconstituted vial into the 250 mL IV Admixture solution as described above. Briefly, the required volume (20.0 mL of a 10 mg/mL constituted solution) was withdrawn using an appropriate plastic syringe and needle, the required volume of constituted drug product was transferred from each of three vials into the 250 mL IV Admixture using an appropriate plastic syringe and needle, and the contents of the IV Admixture were completely mixed to obtain a homogeneous mixture at a target concentration of approximately 2.4 mg/mL. The IV bag was weighed prior to injection of constituted drug product. […] solution, diluting with chilled HPLC method diluent to achieve a target concentration of 0.24 mg/mL, and injecting into the HPLC. Duplicate injections were made for each time point. The pH of the IV Admixture and sample prepared for HPLC analysis were also measured at each time point. The empty IV bag was weighed at study completion to calculate the actual IV Admixture solution volume in each bag.
The reconstituted solution was evaluated for color, clarity, and absence of insoluble material in the vial after every 30 seconds of mixing. Following addition of the reconstituted drug product solution to the IV bag, the resulting IV Admixture was evaluated for color, clarity, and absence of any insoluble material immediately after mixing and at each analytical time point. The amount (area %) of the degradation product doxorubicin was determined at each time point. […]

[3] = tested on: advanced cancer patients; conditions: Phase 1, 41 advanced cancer patients, cited from earlier work
[4] = reconstituted in 50:50 ethanol:water, diluted in LR, two hour time point, average of two studies
[5] = reconstituted in LR, diluted in LR to ~2.4 mg/mL, Study #1, ambient temperature, 0 min
[6] = reconstituted in LR, diluted in LR to ~2.4 mg/mL, Study #1, ambient temperature, 30 min
[7] = reconstituted in LR, diluted in LR to ~2.4 mg/mL, Study #1, ambient temperature, 60 min
[8] = reconstituted in LR, diluted in LR to ~2.4 mg/mL, Study #1, ambient temperature, 120 min
[9] = reconstituted in LR, diluted in LR to ~2.4 mg/mL, Study #1, ambient temperature, 150 min
[10] = reconstituted in LR, diluted in LR to ~2.4 mg/mL, Study #1, ambient temperature, 240 min
[11] = reconstituted in LR, diluted in LR to ~2.4 mg/mL, Study #2, ambient temperature, 0 min
[12] = reconstituted in LR, diluted in LR to ~2.4 mg/mL, Study #2, ambient temperature, 30 min
[13] = reconstituted in LR, diluted in LR to ~2.4 mg/mL, Study #2, ambient temperature, 60 min
[14] = reconstituted in LR, diluted in LR to ~2.4 mg/mL, Study #2, ambient temperature, 90 min
[15] = reconstituted in LR, diluted in LR to ~2.4 mg/mL, Study #2, ambient temperature, 120 min
[16] = reconstituted in LR, diluted in LR to ~2.4 mg/mL, Study #2, ambient temperature, 150 min
[17] = reconstituted in SWFI (~10 mg/mL), diluted in LR IV bag to ~2.4 mg/mL, ambient temperature, 30 min
[18] = reconstituted in SWFI (~10 mg/mL), diluted in LR IV bag to ~2.4 mg/mL, ambient temperature, 60 min
[19] = reconstituted in SWFI (~10 mg/mL), diluted in LR IV bag to ~2.4 mg/mL, ambient temperature, 150 min
[20] = reconstituted in SWFI (~10 mg/mL), diluted in LR IV bag to ~2.4 mg/mL, ambient temperature, 240 min
[21] = reconstituted in ethanol:water, diluted in LR to ~2.4 mg/mL, Study #1, ambient temperature, 0 min
[22] = reconstituted in ethanol:water, diluted in LR to ~2.4 mg/mL, Study #1, ambient temperature, 30 min
[23] = reconstituted in ethanol:water, diluted in LR to ~2.4 mg/mL, Study #1, ambient temperature, 60 min
[24] = reconstituted in ethanol:water, diluted in LR to ~2.4 mg/mL, Study #1, ambient temperature, 90 min
[25] = reconstituted in ethanol:water, diluted in LR to ~2.4 mg/mL, Study #1, ambient temperature, 120 min
[26] = reconstituted in ethanol:water, diluted in LR to ~2.4 mg/mL, Study #1, ambient temperature, 150 min
[27] = reconstituted in ethanol:water, diluted in LR to ~2.4 mg/mL, Study #2, ambient temperature, 0 min
[28] = reconstituted in ethanol:water, diluted in LR to ~2.4 mg/mL, Study #2, ambient temperature, 30 min
[29] = reconstituted in ethanol:water, diluted in LR to ~2.4 mg/mL, Study #2, ambient temperature, 60 min
[30] = reconstituted in ethanol:water, diluted in LR to ~2.4 mg/mL, Study #2, ambient temperature, 120 min
[31] = reconstituted in ethanol:water, diluted in LR to ~2.4 mg/mL, Study #2, ambient temperature, 150 min
[32] = reconstituted in ethanol:water, diluted in LR to ~2.4 mg/mL, Study #2, ambient temperature, 240 min

## COc1cccc2c1C(=O)c1c(O)c3c(c(O)c1C2=O)C[C@@](O)(/C(CO)=N/NC(=O)CCCCCN1C(=O)C=CC1=O)C[C@@H]3O[C@H]1C[C@H](N)[C@H](O)[C@H](C)O1.Cl [DOXO-EMCH]
[1]
  tolerance compared to doxorubicin: significantly higher tolerance
[2]; drug product reconstituted in any of SWFI, LR, 50:50 ethanol/water, based on accumulation of doxorubicin
  stability of IV solutions in LR: relatively stable for two hours or more
[2]; reconstituted in 50:50 ethanol:water, diluted in LR, two studies
  pH drop: 0.3-0.4 units
[2]; [4]
  average doxorubicin content: 2.0%
  average pH: 5.9
[2]; [5]
  Doxorubicin: 1.10 Area %
  pH: 5.99
[2]; [6]
  Doxorubicin: 1.28 Area %
  pH: 5.87
[2]; [7]
  Doxorubicin: 1.74 Area %
  pH: 5.85
[2]; [8]
  Doxorubicin: 2.24 Area %
  pH: 5.76
[2]; [9]
  Doxorubicin: 2.93 Area %
  pH: 5.75
[2]; [10]
  Doxorubicin: 3.80 Area %
  pH: 5.67
[2]; [11]
  Doxorubicin: 1.03 Area %
  pH: 6.10
[2]; [12]
  Doxorubicin: 1.04 Area %
  pH: 5.98
[2]; [13]
  Doxorubicin: 1.68 Area %
  pH: 5.94
[2]; [14]
  Doxorubicin: 1.67 Area %
  pH: 5.89
[2]; [15]
  Doxorubicin: 2.53 Area %
  pH: 5.79
[2]; [16]
  Doxorubicin: 2.50 Area %
  pH: 5.77
[2]; reconstituted in LR, diluted in LR, two studies
  pH drop: 0.2-0.3 units
[2]; reconstituted in LR, diluted in LR, two hour time point, average of two studies
  average pH: 5.8
[2]; reconstituted in SWFI (~10 mg/mL), diluted in LR IV bag to ~2.4 mg/mL, ambient temperature, 0 min
  Doxorubicin: 1.23 Area %
[2]; [17]
  Doxorubicin: 1.40 Area %
  pH: 5.98
[2]; [18]
  Doxorubicin: 1.88 Area %
  pH: 5.84
[2]; [19]
  Doxorubicin: 3.23 Area %
  pH: 5.73
[2]; [20]
  Doxorubicin: 4.23 Area %
  pH: 5.62
[2]; reconstituted in SWFI, diluted in LR
  pH drop: about 0.4 units
[2]; [21]
  Doxorubicin: 1.0 Area %
  pH: 6.22
[2]; [22]
  Doxorubicin: 1.1 Area %
  pH: 6.04
[2]; [23]
  Doxorubicin: 1.3 Area %
  pH: 5.95
[2]; [24]
  Doxorubicin: 1.7 Area %
  pH: 5.89
[2]; [25]
  Doxorubicin: 1.9 Area %
  pH: 5.83
[2]; [26]
  Doxorubicin: 2.3 Area %
  pH: 5.82
[2]; [27]
  Doxorubicin: 1.1 Area %
  pH: 6.19
[2]; [28]
  Doxorubicin: 1.3 Area %
  pH: 6.05
[2]; [29]
  Doxorubicin: 1.5 Area %
  pH: 5.99
[2]; [30]
  Doxorubicin: 2.1 Area %
  pH: 5.89
[2]; [31]
  Doxorubicin: 2.3 Area %
  pH: 5.87
[2]; [32]
  Doxorubicin: 3.4 Area %
  pH: 5.80
[3]; in some cases
  tumor response: induced tumor regression
[3]
  clinical safety: safe for clinical use
